Test results reported in paper PMC9852841, “Expanding the toolbox of metabolically stable lipid prodrug strategies” (Frontiers in Pharmacology, 2023).
Read-outs that look alike come from different tables or passages of the source.

Tests used:
[1] = test system: VSV pseudotype HIV-like viral particles; assay: organism not typed; format: cell-based; settings: for IC50: read-out: HIV IC50
[2] = Metabolic stability in human liver microsomes; settings: for HLM stability (in words) / HLM t1/2: human liver microsomes; for HLM t1/2 / half-life at 3 µM: 3 μM prodrug, NADPH, 0-120 min; for microsomal CLint at 3 µM / half-life at 3 µM: human, microsomes; for microsomal CLint at 3 µM: pH 7.4; for half-life at 3 µM: pH 7.4, HLM t1/2, human liver microsomes
[3] = Solubility observations (aqueous, HSA formulations, growth media); format: physicochemical; settings: observational, relative to TXL
[4] = Cytotoxicity assay (cell viability, CellTiter 96 or resazurin); settings: human, HEK293T cells
[5] = dogs, single TAF dose
[6] = dogs, single TAF dose, cited from earlier work
in vitro = settings: human, microsomes, pH 7.4
[7] = test system: VSV pseudotype HIV-like viral particles; parameters: method as in Pribut et al., 2021; settings: preliminary pseudoviral assay results; ref Pribut et al., 2021; cited from earlier work

SMILES	IC50 ([1]; HEK-293T, 48 h)	HLM t1/2 [2]	microsomal CLint at 3 µM [2]	other results
CCCCOCCCCCOCCCCCOCCCOP(=O)(O)CO[C@H](C)Cn1cnc2c(N)ncnc21.N [Compound 10, Ammonium [(1R)-2-(6-aminopurin-9-yl)-1-methyl-ethoxy]methyl-[3-[5-(5-butoxypentoxy)pentoxy]propoxy]phosphinate]	> 32000 nM	–	–	antiviral activity (in words) [1]: completely abrogated antiviral activity; loss of antiviral activity [1]: > 1,800 fold
CCCCCCCCOCCCCCOCCCCCOP(=O)(O)CO[C@H](C)Cn1cnc2c(N)ncnc21.N [Compound 11, Ammonium 5-(5-octoxypentoxy)pentoxy-[[(1R)-2-(6-aminopurin-9-yl)-1-methyl-ethoxy]methyl]phosphinate]	4050 nM	12 min	58.6 µL/min/mg	antiviral activity (in words) [1]: low μM range; decay of antiviral activity with inclusion of the second oxygen atom [1]: 78 fold; HLM stability (in words) [2]: less stable in HLM relative to TXL; half-life at 3 µM [2]: 11.8 min
COCCOCCOCCOCCOCCOCCOP(=O)(O)CO[C@H](C)Cn1cnc2c(N)ncnc21.N [Compound 12, Ammonium 2,5,8,11,14,17-hexaoxanonadecan-19-yl (R)-(((1-(6-amino-9H-purin-9-yl)propan-2-yl)oxy)methyl)phosphonate]	31200 nM	–	–	IC50 [1]: 34600 nM; aqueous solubility (in words) [3]: observationally increased aqueous solubility; CC50 at 48 h [4]: > 100000 nM
COCCOCCOCCOCCOP(=O)(O)CO[C@H](C)Cn1cnc2c(N)ncnc21.N [Compound 13, Ammonium [(1R)-2-(6-aminopurin-9-yl)-1-methyl-ethoxy]methyl-[2-[2-[2-(2-methoxyethoxy)ethoxy]ethoxy]ethoxy]phosphinate]	26700 nM	–	–	IC50 [1]: 23400 nM; aqueous solubility (in words) [3]: observationally increased aqueous solubility; CC50 at 48 h [4]: > 100000 nM
COCCOCCOP(=O)(O)CO[C@H](C)Cn1cnc2c(N)ncnc21.N [Compound 14, Ammonium [(1R)-2-(6-aminopurin-9-yl)-1-methyl-ethoxy]methyl-[2-(2-methoxyethoxy)ethoxy]phosphinate]	21400 nM	–	–	IC50 [1]: 19400 nM; aqueous solubility (in words) [3]: observationally increased aqueous solubility; CC50 at 48 h [4]: > 100000 nM
CCCCCCCCCCCCCCCCCOCCOP(=O)(O)CO[C@H](C)Cn1cnc2c(N)ncnc21.N [Compound 18, Ammonium 2-heptadecoxyethoxy-[[(1R)-2-(6-aminopurin-9-yl)-1-methyl-ethoxy]methyl]phosphinate]	3 nM	35 min	19.8 µL/min/mg	boost in potency relative to analogue 20 [1]: 17 fold; half-life at 3 µM [2]: 34.9 min
CCCCCCCCCCCCCCCOCCCCOP(=O)(O)CO[C@H](C)Cn1cnc2c(N)ncnc21.N [Compound 19, Ammonium 4-pentadecoxybutoxy-[[(1R)-2-(6-aminopurin-9-yl)-1-methyl-ethoxy]methyl]phosphinate]	30 nM	48 min	14.4 µL/min/mg	–
CCCCCCCCCCCCCCOCCCCCOP(=O)(O)CO[C@H](C)Cn1cnc2c(N)ncnc21.N [Compound 20, Ammonium [(1R)-2-(6-aminopurin-9-yl)-1-methyl-ethoxy]methyl-(5-tetradecoxypentoxy)phosphinate]	52 nM	31 min	22.5 µL/min/mg	half-life at 3 µM [2]: 30.9 min
CCCCCCCCCCCCCCCCCCOCCOP(=O)(O)CO[C@H](C)Cn1cnc2c(N)ncnc21.N [Compound 21, Ammonium 2-octadecoxyethoxy-[[(1R)-2-(6-aminopurin-9-yl)-1-methyl-ethoxy]methyl]phosphinate]	3 nM	105 min	6.6 µL/min/mg	HLM stability (in words) [2]: improved stability in HLM
C[C@H](Cn1cnc2c(N)ncnc21)OCP(=O)(O)OCCOCCCCCCCCCCCCCC#CC(F)(F)F.N [Compound 32, Ammonium 2-((16,16,16-trifluorohexadec-14-yn-1-yl)oxy)ethyl (R)-(((1-(6-amino-9h-purin-9-yl)propan-2-yl)oxy)methyl)phosphonate]	16 nM	>120 min	< 5.78 µL/min/mg	–
C[C@H](Cn1cnc2c(N)ncnc21)OCP(=O)(O)OCCOCCCCCCCCCCCCCCC#CC(F)(F)F.N [Compound 33, Ammonium 2-((17,17,17-trifluoroheptadec-15-yn-1-yl)oxy)ethyl (R)-(((1-(6-amino-9h-purin-9-yl)propan-2-yl)oxy)methyl)phosphonate]	10.6 nM	>120 min	< 5.78 µL/min/mg	–
C[C@H](Cn1cnc2c(N)ncnc21)OCP(=O)(O)OCCOCCCCCCCCCCCCCCCC(F)(F)F.N [Compound 36, Ammonium 2-((16,16,16-trifluorohexadecyl)oxy)ethyl (R)-(((1-(6-amino-9H-purin-9-yl)propan-2-yl)oxy)methyl)phosphonate]	8.8 nM	>120 min	< 5.78 µL/min/mg	–
C[C@H](Cn1cnc2c(N)ncnc21)OCP(=O)(O)OCCOCCCCCCCCCCCCCCCCC(F)(F)F.N [Compound 37, Ammonium 2-((17,17,17-trifluoroheptadecyl)oxy)ethyl (R)-(((1-(6-amino-9h-purin-9-yl)propan-2-yl)oxy)methyl)phosphonate]	12.6 nM	>120 min	< 5.78 µL/min/mg	–
C[C@H](Cn1cnc2c(N)ncnc21)OCP(=O)(O)OCCOCCCCCCCCCCC#Cc1ccc(S(F)(F)(F)(F)F)cc1.N [Compound 40, Ammonium [(1R)-2-(6-aminopurin-9-yl)-1-methyl-ethoxy]methyl-[2-[12-[4-(pentafluorosulfanyl)phenyl]dodec-11-ynoxy]ethoxy]phosphinate]	14.6 nM	>120 min	< 5.78 µL/min/mg	–
C[C@H](Cn1cnc2c(N)ncnc21)OCP(=O)(O)OCCOCCCCCCCCCCCCc1ccc(S(F)(F)(F)(F)F)cc1.N [Compound 42, Ammonium [(1R)-2-(6-aminopurin-9-yl)-1-methyl-ethoxy]methyl-[2-[12-[4-(pentafluorosulfanyl)phenyl]dodecoxy]ethoxy]phosphinate]	25.4 nM	>120 min	< 5.78 µL/min/mg	–
CC(C)OC(=O)[C@H](C)N[P@](=O)(CO[C@H](C)Cn1cnc2c(N)ncnc21)Oc1ccccc1 [TAF, tenofovir alafenamide]	–	–	–	fraction of dose remaining available to access HIV-infected cells [5]: 18%; fraction of dose sequestered for toxic side effects [5]: 82%; fraction of dose extracted by the liver ([6]; ref Babusis et al., 2013): 65%; fraction of a single dose converted to plasma TFV ([6]; ref Lee et al., 2005): 17%
CCCCCCCCCCCCCCCCOCCCOP(=O)(O)CO[C@H](C)Cn1cnc2c(N)ncnc21 [TXL, tenofovir Exalidex, reference compound]	18 nM	41.6 min	–	microsomal CLint (in vitro): 16.7 µL/min/mg; half-life at 3 µM [2]: 42 min
CCCCCCCCCCCCCCCCCCCCOP(=O)(O)COC(C)Cn1cnc2c(N)ncnc21 (centres unmarked) [arachidyl TFV]	–	–	–	IC50 [7]: 127 nM
